Active and inactive are the calls of the source.
Legend:
[1] = molecular target: Peroxisome proliferator-activated receptor gamma/Nuclear receptor coactivator 1 (Homo sapiens, UniProt P37231); format: functional;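 further: agonist potency as compounds enhance coactivator SRC-1 recruitment to PPARgamma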
[2] = molecular target: Peroxisome proliferator-activated receptor gamma/Nuclear receptor coactivator 3 (Homo sapiens, UniProt P37231); format: functional;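 further: agonist potency for raising coactivator recruitment to the receptor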
Sequence of Peroxisome proliferator-activated receptor gamma/Nuclear receptor coactivator 3 (P37231 whole entry): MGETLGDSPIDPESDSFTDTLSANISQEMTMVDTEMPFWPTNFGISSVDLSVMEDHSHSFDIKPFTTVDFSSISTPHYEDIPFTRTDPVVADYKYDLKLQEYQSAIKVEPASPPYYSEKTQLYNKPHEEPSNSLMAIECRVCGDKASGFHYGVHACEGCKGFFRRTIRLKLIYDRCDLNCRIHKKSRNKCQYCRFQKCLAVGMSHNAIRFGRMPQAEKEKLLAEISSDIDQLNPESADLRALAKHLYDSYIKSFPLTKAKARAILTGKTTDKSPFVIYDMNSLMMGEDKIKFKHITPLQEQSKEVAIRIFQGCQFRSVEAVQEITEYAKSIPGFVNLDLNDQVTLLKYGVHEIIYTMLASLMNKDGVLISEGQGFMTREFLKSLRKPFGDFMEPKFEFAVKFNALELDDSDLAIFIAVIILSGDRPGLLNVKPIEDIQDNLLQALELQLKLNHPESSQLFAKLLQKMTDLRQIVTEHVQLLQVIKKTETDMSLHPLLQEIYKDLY
Sequence of Peroxisome proliferator-activated receptor gamma/Nuclear receptor coactivator 3 (Q9Y6Q9 whole entry, further chain): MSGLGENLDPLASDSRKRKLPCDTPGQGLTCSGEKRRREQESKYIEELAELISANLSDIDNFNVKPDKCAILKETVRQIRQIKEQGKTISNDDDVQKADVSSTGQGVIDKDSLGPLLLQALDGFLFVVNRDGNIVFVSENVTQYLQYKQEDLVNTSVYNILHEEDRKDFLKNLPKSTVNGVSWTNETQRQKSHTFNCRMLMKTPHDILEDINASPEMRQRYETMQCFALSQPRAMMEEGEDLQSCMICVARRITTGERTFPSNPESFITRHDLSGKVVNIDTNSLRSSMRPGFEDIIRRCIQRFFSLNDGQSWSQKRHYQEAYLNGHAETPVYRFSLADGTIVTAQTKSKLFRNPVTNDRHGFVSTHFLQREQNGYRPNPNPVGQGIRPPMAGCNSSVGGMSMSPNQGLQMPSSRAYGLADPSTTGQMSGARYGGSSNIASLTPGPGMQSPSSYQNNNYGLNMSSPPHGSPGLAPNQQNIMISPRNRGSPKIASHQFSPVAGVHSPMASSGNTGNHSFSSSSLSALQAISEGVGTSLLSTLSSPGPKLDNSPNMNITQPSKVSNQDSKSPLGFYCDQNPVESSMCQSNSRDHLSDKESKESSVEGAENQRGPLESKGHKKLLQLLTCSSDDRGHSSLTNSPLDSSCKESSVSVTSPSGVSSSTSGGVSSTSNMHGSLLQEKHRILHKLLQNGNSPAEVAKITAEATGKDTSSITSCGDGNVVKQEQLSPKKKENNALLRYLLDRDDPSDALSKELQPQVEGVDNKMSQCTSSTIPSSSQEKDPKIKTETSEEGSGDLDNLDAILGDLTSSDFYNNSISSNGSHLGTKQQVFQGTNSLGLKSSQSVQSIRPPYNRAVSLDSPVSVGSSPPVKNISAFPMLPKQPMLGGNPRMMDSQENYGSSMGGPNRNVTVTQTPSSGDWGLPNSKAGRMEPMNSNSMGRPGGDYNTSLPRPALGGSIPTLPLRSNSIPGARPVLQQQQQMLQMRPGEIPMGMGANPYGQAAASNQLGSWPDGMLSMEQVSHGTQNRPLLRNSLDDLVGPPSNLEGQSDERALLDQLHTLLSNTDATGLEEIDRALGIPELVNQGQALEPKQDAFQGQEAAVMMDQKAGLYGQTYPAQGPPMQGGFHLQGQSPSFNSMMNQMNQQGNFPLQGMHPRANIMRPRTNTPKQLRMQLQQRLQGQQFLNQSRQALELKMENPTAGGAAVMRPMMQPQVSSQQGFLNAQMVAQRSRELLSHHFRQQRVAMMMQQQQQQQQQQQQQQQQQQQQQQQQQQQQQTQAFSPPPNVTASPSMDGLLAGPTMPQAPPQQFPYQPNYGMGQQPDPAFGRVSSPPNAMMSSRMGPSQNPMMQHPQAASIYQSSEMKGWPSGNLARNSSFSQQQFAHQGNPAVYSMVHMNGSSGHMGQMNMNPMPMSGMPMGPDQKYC

[3] = molecular target: Peroxisome proliferator-activated receptor gamma/Nuclear receptor coactivator 2 (Homo sapiens, UniProt P37231); format: functional;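 further: agonist potency for raising coactivator recruitment to the receptor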
Sequence of Peroxisome proliferator-activated receptor gamma/Nuclear receptor coactivator 2 (P37231 whole entry): as the sequence (P37231 whole entry) above
Sequence of Peroxisome proliferator-activated receptor gamma/Nuclear receptor coactivator 2 (Q15596 whole entry, further chain): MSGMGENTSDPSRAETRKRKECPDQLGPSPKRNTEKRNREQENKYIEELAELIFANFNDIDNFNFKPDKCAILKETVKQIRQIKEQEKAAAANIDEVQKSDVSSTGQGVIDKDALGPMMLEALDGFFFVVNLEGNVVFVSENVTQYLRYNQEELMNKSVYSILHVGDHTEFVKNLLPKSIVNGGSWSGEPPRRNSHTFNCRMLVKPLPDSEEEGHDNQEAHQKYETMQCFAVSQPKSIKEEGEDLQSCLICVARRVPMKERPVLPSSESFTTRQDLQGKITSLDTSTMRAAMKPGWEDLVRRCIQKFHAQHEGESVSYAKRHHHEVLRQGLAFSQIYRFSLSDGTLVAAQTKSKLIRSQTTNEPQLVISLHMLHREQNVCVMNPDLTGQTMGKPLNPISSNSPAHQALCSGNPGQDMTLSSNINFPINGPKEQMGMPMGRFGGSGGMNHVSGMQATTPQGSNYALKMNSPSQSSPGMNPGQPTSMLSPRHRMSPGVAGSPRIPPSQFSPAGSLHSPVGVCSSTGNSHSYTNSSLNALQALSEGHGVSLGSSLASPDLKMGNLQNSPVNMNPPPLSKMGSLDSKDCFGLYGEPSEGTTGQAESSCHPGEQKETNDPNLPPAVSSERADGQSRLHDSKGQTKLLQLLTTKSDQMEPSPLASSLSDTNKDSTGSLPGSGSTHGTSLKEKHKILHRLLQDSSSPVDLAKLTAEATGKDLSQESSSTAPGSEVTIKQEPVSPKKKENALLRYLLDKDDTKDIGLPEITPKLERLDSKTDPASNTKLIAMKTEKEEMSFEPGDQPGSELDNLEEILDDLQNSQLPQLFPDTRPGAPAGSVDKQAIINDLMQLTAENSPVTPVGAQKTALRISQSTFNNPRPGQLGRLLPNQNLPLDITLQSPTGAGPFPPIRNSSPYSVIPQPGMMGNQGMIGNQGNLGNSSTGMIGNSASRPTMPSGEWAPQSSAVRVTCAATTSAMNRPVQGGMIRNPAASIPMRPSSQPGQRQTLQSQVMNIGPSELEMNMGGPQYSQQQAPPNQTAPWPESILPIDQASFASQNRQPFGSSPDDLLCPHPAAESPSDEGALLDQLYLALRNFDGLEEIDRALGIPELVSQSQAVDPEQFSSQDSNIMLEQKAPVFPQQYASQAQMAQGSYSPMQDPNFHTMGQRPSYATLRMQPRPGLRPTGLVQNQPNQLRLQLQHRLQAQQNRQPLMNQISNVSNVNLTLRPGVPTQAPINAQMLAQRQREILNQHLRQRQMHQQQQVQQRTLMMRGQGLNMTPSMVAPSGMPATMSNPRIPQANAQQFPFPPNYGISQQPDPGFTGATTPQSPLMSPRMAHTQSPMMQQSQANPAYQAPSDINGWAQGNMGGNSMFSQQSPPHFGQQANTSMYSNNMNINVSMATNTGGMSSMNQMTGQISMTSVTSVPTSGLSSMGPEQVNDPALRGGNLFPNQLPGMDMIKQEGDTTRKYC

Cytochrome P450 2C9 = Cytochrome P450 2C9 (Homo sapiens, UniProt P11712)
Cytochrome P450 2C19 = Cytochrome P450 2C19 (Homo sapiens, UniProt P33261); experiment: Cytochrome panel assay with activity outcomes. Panel member name: p450-cyp2c19 Compounds with AC50 equal or less than 10 uM are considered active; format: functional; details: read-out: AC50
Sequence of Cytochrome P450 2C19 (P33261 whole entry): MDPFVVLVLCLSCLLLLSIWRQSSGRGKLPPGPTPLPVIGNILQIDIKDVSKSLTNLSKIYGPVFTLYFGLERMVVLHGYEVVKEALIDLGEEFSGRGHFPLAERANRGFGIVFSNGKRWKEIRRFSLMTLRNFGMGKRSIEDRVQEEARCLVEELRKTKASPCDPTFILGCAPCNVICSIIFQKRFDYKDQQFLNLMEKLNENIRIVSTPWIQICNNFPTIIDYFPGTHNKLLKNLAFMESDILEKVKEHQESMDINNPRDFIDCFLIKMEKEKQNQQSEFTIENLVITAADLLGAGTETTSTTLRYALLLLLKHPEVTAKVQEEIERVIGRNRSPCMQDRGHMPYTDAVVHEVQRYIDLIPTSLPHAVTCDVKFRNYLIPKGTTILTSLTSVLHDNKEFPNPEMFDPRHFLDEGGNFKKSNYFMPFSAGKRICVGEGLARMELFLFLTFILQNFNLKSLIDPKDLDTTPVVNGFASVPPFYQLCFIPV

[4] = molecular target: Eukaryotic translation initiation factor 4E (Mus musculus, UniProt P63073); experiment: blockers of eIF4G binding by eIF4E – biochemical, TR-FRET, dose response (AID 855); format: functional;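 further: potency for disrupting eIF4E binding to eIF4GI seen as loss of FRET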
Sequence of Eukaryotic translation initiation factor 4E (P63073 whole entry): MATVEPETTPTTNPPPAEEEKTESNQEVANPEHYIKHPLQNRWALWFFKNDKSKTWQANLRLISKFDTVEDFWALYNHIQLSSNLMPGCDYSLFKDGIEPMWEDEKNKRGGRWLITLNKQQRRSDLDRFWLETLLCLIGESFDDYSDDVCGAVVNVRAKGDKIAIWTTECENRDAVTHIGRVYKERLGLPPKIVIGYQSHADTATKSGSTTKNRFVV

[5] = molecular target: T1, Mannose-6-phosphate isomerase (Homo sapiens, UniProt P34949); experiment: MPI inhibition at elevated mannose 6-phosphate – biochemical, fluorescence intensity, high mannose 6-phosphate, primary screen (AID 1220)
T1 sequence (P34949 whole entry): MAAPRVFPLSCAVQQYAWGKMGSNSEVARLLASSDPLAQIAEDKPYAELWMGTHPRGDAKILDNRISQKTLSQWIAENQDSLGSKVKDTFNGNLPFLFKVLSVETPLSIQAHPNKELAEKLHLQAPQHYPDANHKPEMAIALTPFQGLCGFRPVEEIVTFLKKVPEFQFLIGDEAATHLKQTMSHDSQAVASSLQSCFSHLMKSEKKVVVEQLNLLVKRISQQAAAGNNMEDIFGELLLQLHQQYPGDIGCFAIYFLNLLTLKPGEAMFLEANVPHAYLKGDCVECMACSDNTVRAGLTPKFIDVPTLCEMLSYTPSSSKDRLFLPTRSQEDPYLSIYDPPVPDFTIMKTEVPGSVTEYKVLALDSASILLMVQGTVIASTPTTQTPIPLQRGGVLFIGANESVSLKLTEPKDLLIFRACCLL

Caspase-6 = molecular target: T2, Caspase-6 (Homo sapiens, UniProt P55212); experiment: inhibition of CASP6 peptide cleavage – biochemical, VEID-R110 fluorescence, cherry-pick, dose response (AID 720632)
T2 sequence (P55212 whole entry): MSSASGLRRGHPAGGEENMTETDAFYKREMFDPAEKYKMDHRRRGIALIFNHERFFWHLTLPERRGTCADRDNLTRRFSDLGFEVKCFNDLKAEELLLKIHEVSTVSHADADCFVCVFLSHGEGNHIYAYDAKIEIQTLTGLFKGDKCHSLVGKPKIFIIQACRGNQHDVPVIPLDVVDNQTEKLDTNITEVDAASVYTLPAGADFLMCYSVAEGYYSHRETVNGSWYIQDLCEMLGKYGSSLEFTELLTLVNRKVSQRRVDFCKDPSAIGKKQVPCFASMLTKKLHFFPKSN

BJ [6] = experiment: BJ-TERT-LT-ST fibroblast viability loss – cell-based, RAS-independent, luminescence, dose response (AID 1935); format: functional; details: Homo sapiens;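 further: BJ fibroblasts immortalized with TERT plus LT and ST oncogenes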
BJ [7] = experiment: BJ-TERT fibroblast viability loss – cell-based, RAS-independent, luminescence, dose response (AID 1933); format: functional; details: Homo sapiens
BJ [8] = experiment: cells; format: functional, cell-based; details: Homo sapiens
[9] = DRD fibroblast viability loss – cell-based, non-viral oncogenic, luminescence, dose response (AID 1934); format: functional; details: Homo sapiens
[10] = viability loss in CEM21 cells – cell-based, CellTiter-Glo luminescence, cherry-picked, cytotoxicity control for viral fusion inhibitor project, dose response (AID 652042); format: functional;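 further: potency for signal decrease meaning cytotoxicity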
[11] = reduction of Shn3 3'UTR-driven luciferase in osteoblasts – cell-based, Clone20 osteoblasts, firefly luciferase, cherry-picked, dose response (AID 624132); format: functional;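 further: firefly luciferase luminescence from reporter carrying the Shn3 3'UTR in osteoblasts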
[12] = molecular target: T3, Kappa-type opioid receptor (Homo sapiens, UniProt P41145); format: functional
T3 sequence (P41145 whole entry): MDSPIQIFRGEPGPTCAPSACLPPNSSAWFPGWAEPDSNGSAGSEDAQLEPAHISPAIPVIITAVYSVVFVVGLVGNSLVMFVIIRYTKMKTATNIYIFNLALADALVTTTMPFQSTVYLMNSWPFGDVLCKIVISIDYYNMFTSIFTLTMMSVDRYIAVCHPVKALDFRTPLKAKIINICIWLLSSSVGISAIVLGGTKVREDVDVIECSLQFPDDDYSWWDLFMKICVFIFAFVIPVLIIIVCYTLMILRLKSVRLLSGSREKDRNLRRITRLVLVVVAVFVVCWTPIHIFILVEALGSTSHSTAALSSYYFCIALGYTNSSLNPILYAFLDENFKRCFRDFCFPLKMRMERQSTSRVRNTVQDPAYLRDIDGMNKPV

[13] = non-specific 3'UTR reporter inhibition in Clone20-Shn3RL – cell-based, Renilla luciferase, cherry-picked, counter-screen for Shn3 inhibitor project, dose response (AID 624133); format: functional
Beta-galactosidase = Beta-galactosidase (Escherichia coli, UniProt Q8VNN2); format: functional
[14] = HIV-1 AD8 envelope cell-cell fusion blockers – cherry-pick, dose response (AID 652062); format: functional, cell-based;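 further: luciferase signal from cell-cell fusion driven by HIV-1 clade B AD8 Env; potency is for inhibitors of fusion seen as a drop in luminescence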
[15] = molecular target: T3, Kappa-type opioid receptor; format: functional; remark: listed apart in the source
H9c2 = experiment: cells; format: functional, cell-based; details: Rattus norvegicus, H9c2, Myocardium;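 further: confirmatory concentration-response retest of ultra-high-throughput screening hits for modulation of myocardial damage; cell death induced by hydrogen peroxide oxidative stress; compound pretreatment for 60 min then peroxide exposure for 2 h; potency is for protecting the cells against peroxide damage rather than for killing them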
[16] = loss of viability in HepG2 cells – cell-based, CellTiter-Glo, cherry-picked, cytotoxicity control for Shn3 inhibitor project, dose response (AID 624134); format: functional
[17] = molecular target: Luciferin 4-monooxygenase (Photinus pyralis, UniProt P08659); experiment: inhibition of purified Photinus pyralis luciferase – biochemical, luminescence, dose response (AID 1891)
[18] = Luminescence Cell-Based Dose Confirmation HTS to Identify Inhibitors of Platelet Dense Granule Release. [Related pubchem assays: 1663 (Primary HTS), 1678 (Summary of Project)]; format: functional
[19] = molecular target: T4, Short transient receptor potential channel 4 (Mus musculus, UniProt Q9QUQ5); experiment: block of DAMGO-driven TRPC4 calcium entry – cell-based, HEK293 TRPC4/mu-opioid, Fluo-4 calcium, dose response (AID 434942); format: functional;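 further: potency of inhibitors blocking the TRPC4 calcium response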
T4 sequence (Q9QUQ5 whole entry): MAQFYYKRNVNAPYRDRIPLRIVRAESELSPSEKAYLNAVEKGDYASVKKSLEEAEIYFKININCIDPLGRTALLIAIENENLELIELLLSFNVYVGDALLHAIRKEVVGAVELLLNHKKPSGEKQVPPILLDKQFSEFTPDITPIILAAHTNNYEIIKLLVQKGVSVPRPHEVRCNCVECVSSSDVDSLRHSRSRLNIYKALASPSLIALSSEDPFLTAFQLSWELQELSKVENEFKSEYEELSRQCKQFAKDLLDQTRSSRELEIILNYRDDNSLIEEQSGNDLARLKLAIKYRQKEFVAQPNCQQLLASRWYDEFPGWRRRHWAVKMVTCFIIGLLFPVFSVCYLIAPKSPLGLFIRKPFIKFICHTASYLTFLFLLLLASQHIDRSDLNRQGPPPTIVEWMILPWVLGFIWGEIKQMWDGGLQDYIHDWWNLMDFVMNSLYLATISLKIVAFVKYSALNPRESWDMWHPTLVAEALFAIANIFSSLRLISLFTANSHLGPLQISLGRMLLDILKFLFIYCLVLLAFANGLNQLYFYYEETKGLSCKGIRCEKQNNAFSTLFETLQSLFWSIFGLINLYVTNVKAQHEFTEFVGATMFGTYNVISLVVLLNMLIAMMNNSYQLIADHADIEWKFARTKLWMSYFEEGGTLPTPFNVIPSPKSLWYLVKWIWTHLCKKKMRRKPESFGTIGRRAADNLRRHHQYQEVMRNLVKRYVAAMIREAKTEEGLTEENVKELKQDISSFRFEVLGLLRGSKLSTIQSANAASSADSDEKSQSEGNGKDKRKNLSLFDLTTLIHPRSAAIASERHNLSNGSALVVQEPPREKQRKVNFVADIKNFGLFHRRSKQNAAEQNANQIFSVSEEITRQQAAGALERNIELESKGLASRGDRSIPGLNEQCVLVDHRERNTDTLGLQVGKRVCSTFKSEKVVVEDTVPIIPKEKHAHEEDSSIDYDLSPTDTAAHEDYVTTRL

Clc1cccc2sc(N3CCN(c4ccccc4)CC3)nc12
EC50 [1]: > 79.4 µM (not active)
EC50 [2]: > 79.4 µM (not active)
EC50 [3]: > 79.4 µM (not active)

CC(C)CC(=O)N1CCC(N2CCN(c3ccccc3)CC2)CC1
AC50 (Cytochrome P450 2C9): 14.1 µM (inconclusive)
AC50 (Cytochrome P450 2C19): 15.8 µM (inconclusive)
IC50 [4]: > 64 µM (inactive)

Cc1ccc2cc(N)ccc2n1
IC50 [5]: > 50 µM (not active)
AC50 (Caspase-6): 14.2 µM (active)

O=C(c1cccc([N+](=O)[O-])c1)c1ccccn1
EC50 (BJ [6]): > 150 µM (not active)
EC50 (BJ [7]): > 150 µM (not active)
EC50 (BJ [8]): > 150 µM (not active)
EC50 [9]: > 150 µM (not active)

O=C(Cc1sc(-c2ccccc2Cl)nc1-c1ccccc1)Nc1ccccc1
EC50 [1]: 10 µM (not active)
EC50 [2]: 11.3 µM (not active)
EC50 [3]: 6.82 µM (active)

O=C(NNC(=O)C(c1ccccc1)c1ccccc1)c1ccccn1
AC50 [10]: 3.53 µM (active)
AC50 [11]: 2.87 µM (active)
IC50 [12]: > 32 µM
AC50 [13]: 2.52 µM (active)
EC50 (Beta-galactosidase): > 31.5 µM (inactive)
AC50 [14]: 0.585 µM (active)
IC50 [15]: 17.5 µM (active)
IC50 (H9c2): > 79 µM (inactive)
AC50 [16]: 5.11 µM (active)

CC1(C)Cc2c(sc3nc(NCCN4CCOCC4)n4ncnc4c23)CO1
EC50 [17]: > 112 µM (not active)
EC50 [18]: 10.8 µM (active)
IC50 [4]: > 64 µM (inactive)

Cc1ccccc1N(C(=O)c1snc(C(N)=O)c1N)C(C(=O)NC1CCCC1)c1ccco1 (stereo unspecified)
EC50 [19]: 2.99 µM (active)

CN(C)/C=C1\Oc2ccc3ccccc3c2C1=O
IC50 [5]: > 50 µM (not active)

CN(CC(=O)Nc1ccc(N2CCOCC2)cc1)Cc1c(O)ccc2ccccc12
IC50 [5]: > 50 µM (not active)

CC1CCCN(c2c3c(nc4ccccc24)CCCC3)C1 (stereo unspecified)
EC50 [19]: 1.33 µM (active)

— ChEMBL document CHEMBL1201862, “PubChem BioAssay data set” (2004)
